Like-named read-outs stand apart in the source and are kept apart here.
Assays:
HIV-1 M184V variant = assay type: cell-based; details: HOS cells, single-cycle infectivity assay
[1] = system: HIV-1 vectors (wild-type); assay type: cell-based
MT-4 cells = details: previously reported; cited from earlier work
[2] = system: NRTI-resistant HIV-1, including the M184V variant; details: infected MT-4 cells, Ohrui 2006, Ohuri 2007, Kawamoto 2008, cited from earlier work
HIV-1 RT = molecular target: T1, HIV-1 RT (Human immunodeficiency virus type 1 group M subtype B, UniProt P03366); test: Polymerase (DNA) extension assay with purified recombinant HIV-1 RT; assay type: biochemical
T1 construct: The expression and purification of HIV-1 RT and the polymerase assays were done as previously described; made in house
Protocol: FIG. 15. In vitro DNA extension using purified, recombinant HIV-1 RT, with varying amounts of C4′-methyl-2-deoxyadenosinetriphosphate and either (A) a DNA template or (B) and RNA template. […] Bands in the lane containing equimolar amounts of ddATP and dATP correspond to pausing events at the site of incorporation of the nuclosidetriphosphate analog.
The expression and purification of HIV-1 RT and the polymerase assays were done as previously described. For the extension assays, 7.0µl of a […] of synthetic DNA oligonucleotide (5′-[…]-3′ (SEQ ID NO:1); Biosource, CA) was 5′ end-labeled, then annealed to an excess of either a DNA template (5′-[…]-3′ (SEQ ID NO:2)) or an RNA template (5′-[…]-3′ (SEQ ID NO:3)). The A residue is the first nucleotide past the 3′ end of the primer. The annealed template-primer (T/P) was suspended in a final concentration of 25.0 mM Tris (pH 8.0), 75 mM KCl, 8.0 mM MgCl2, 100.0µg/ml BSA, 10.0 mM CHAPS, and 10.0µM each of dCTP, dGTP, and TTP. For the RNA template reactions, the mixture was also supplemented with 1 U/µl of SuperAsin (Ambion). The reaction buffer was aliquoted to individual tubes, then supplemented with a total of 10.0µM dATP and/or adenosine triphosphate analog (as described in the figure legend). The reactions were initiated by the addition of 1.0µg RT and the reaction was incubated at 37° C. for the various indicated time intervals. Reactions were stopped by the addition of EDTA and the reactions precipitated by the addition of isopropyl alcohol. The products were resuspended in formamide gel loading buffer II (Ambion), heated at 70° for 5 min to denature the products, and fractionated on a 15% polyacrylamide sequencing gel.

HIV-1 Q151M complex = assay type: cell-based
[3] = system: HIV-1 viral DNA synthesis (reverse transcriptase); test: Quantitative PCR of viral DNA from infected HOS cells; assay type: cell-based; details: viral DNA collected 2, 4, 6 and 24 hours post-infection
Description: FIG. 5 is a schematic illustrating the steps of HIV-1 viral DNA synthesis. Viral DNA was isolated from infections over time and assayed by quantitative PCR to determine the amount of viral DNA produced corresponding to various points of DNA synthesis. The regions targeted by our PCR primers and probes are indicated and correspond to: initiation (RU5), minus strand transfer (U3), full length viral DNA (gag), and plus strand transfer (corresponding to second strand synthesis).
The effects of the target compounds on viral DNA production were determined by quantitative PCR. 293 cells were transfected as above and transfections were washed with PBS 8 hours post-transfection and fresh medium added. The transfection wash step was repeated 24 hours post-transfection and fresh medium was added. On the day prior to infection, HOS cells were plated at 2×10^5 cells on to 60 mm plates. Virus-containing supernatants were harvested at 48 hours as above and treated with 20 U/mL of RNase-free DNase I (Roche Applied Science, Indianapolis, Ind.) and 30 U/mL of DNase Turbo (Ambion, Foster City, Calif.). Cells were pre-incubated with the target compounds for 3 h. For each target compound, the treated virus-containing supernatants were concentrated to 7.5 mL, and infections carried out by adding 1.75 mL each to 4 plates of HOS cells. Cells were harvested at 2, 4, 6, and 24 hour intervals and the viral DNA purified using the Qiagen EZ1 DNA tissue kit (Valencia, Calif.). Quantitative PCR (qPCR) was used to determine quantities of DNA corresponding to various steps along the viral DNA synthesis pathway. qPCR primers and probes used were as previously described. (Julias, J. G., Ferris, A. L., Boyer, P. L. and Hughes, S. H. (2001) J. Virol. 75, 6537-46.).
In order to determine that the compounds are targeting HIV-1 reverse transcriptase in the cell based assays, viral DNA was isolated from infections over time and assayed by quantitative PCR to determine the amount of viral DNA produced corresponding to various points of DNA synthesis (FIG. 5). The regions targeted by our PCR primers and probes correspond to: initiation (RU5), minus strand transfer (U3), full length viral DNA (gag), and plus strand transfer (corresponding to the initiation of second strand synthesis).

HIV-1 = assay type: cell-based
HIV-1 SSGR+215 = assay type: cell-based
HIV-1 AZT-R = assay type: cell-based
MT4 cells = details: work from Ohuri and others; cited from earlier work

C#C[C@]1(CO)O[C@@H](n2cnc3c(N)nc(F)nc32)C[C@@H]1O [C4′-ethynl-deoxy-2-fluoro-adenosine, C4′-ethynl-deoxy-2-fluoroadenosine]
increase in EC50 values, M184V variant over wild-type (HIV-1 M184V variant): 2 fold | efficacy against WT versus C4′-methyl- and -ethyl-2-deoxyadenosine [1]: slightly improved efficacies against WT | cytotoxicity in MT-4 cells (MT-4 cells): decreased cytotoxicity | effectiveness against HIV-1 in MT-4 cells [2]: effective compound against NRTI-resistant HIV-1, including the M184V variant | effectiveness against HIV-1 in MT-4 cells ([2]; listed as C4′-ethynl-deoxy-2-fluoroadenosine): effective against the wild-type and the M184V reverse transcriptase variant

C[C@]1(COP(=O)(O)OP(=O)(O)OP(=O)(O)O)O[C@@H](n2cnc3c(N)ncnc32)C[C@@H]1O [C4′-methyl-2-dexoyadenosinetriphosphate]
chain termination (HIV-1 RT; longer time points, extended DNA products observed): does not act as a chain terminator | competition with normal nucleosides (HIV-1 RT; mixtures of ATP and the triphosphate): able to compete with normal nucleosides during DNA synthesis | effect of triphosphate incorporation on DNA synthesis (HIV-1 RT; short time points, DNA or RNA template): pausing during DNA synthesis at the point of incorporation

CCC1(CO)OC(n2cnc3c(N)ncnc32)CC1O (stereo not drawn) [C4′Et-2-dA, 5-(6-Amino-purin-9-yl)-2-ethyl-2-hydroxymethyl-tetrahydro-furan-3-ol]
inhibition of NRTI resistance mutant Q151M complex (HIV-1 Q151M complex): inhibitory | inhibition of DNA synthesis compared with AZT [3]: as well as or better than AZT | late stage viral DNA synthesis (gag and 2nd Strand Transfer) [3]: significantly diminished | effectiveness in TZM-bl cells compared with HOS cells (HIV-1; TZM-bl cells): equally as effective | inhibition of NRTI resistance mutant SSGR+215 (HIV-1 SSGR+215): inhibitory | selectivity index (CC50 to EC50 ratio) (HOS cells): greater than 140 | inhibition of NRTI resistance mutant AZT-R (HIV-1 AZT-R): inhibitory | increase in the EC50 value, AZT-R variant over wild-type (HIV-1 AZT-R; HOS cells): 3.9 fold

C[C@]1(CO)O[C@@H](n2cnc3c(N)ncnc32)C[C@@H]1O [C4′Me-2-dA, C4′-methyl-2-deoxyadenosine]
inhibition of NRTI resistance mutant Q151M complex (HIV-1 Q151M complex): inhibitory | inhibition of DNA synthesis compared with AZT [3]: as well as or better than AZT | late stage viral DNA synthesis (gag and 2nd Strand Transfer) [3]: significantly diminished | cytotoxicity in MT4 cell killing assays (MT4 cells): cytotoxic | effectiveness in TZM-bl cells compared with HOS cells (HIV-1): equally as effective | inhibition of NRTI resistance mutant SSGR+215 (HIV-1 SSGR+215): inhibitory | EC50 ([1]; read-out: EC50, relative infectivity of HIV-1 vectors): 0.048 µM | inhibition of NRTI resistance mutant AZT-R (HIV-1 AZT-R): inhibitory

Reference: patent publication US8513214B2, “C4′-substituted-2-deoxyadenosine analogs and methods of treating HIV” (The United States of America as Represented by the …, priority 2007, dated 2013)
